Experimental data published in patent publication US11242337B2, “Compounds useful for treating gastrointestinal tract disorders” (Ardelyx, Inc., priority 2017, dated 2022).
Structures can show the parent of a compound that is named as a salt.

Experiments:
NHE3 [1] = biological target: T1, NHE3 (Homo sapiens, UniProt P48764); experiment: Cell-based assay of NHE-3 activity (pre-incubation inhibition), human; conditions: human Preincubation; for IC50 / pIC50: 0-30 μM test compound
T1 construct: expressed in transfected cells
T1 sequence (P48764 26-834): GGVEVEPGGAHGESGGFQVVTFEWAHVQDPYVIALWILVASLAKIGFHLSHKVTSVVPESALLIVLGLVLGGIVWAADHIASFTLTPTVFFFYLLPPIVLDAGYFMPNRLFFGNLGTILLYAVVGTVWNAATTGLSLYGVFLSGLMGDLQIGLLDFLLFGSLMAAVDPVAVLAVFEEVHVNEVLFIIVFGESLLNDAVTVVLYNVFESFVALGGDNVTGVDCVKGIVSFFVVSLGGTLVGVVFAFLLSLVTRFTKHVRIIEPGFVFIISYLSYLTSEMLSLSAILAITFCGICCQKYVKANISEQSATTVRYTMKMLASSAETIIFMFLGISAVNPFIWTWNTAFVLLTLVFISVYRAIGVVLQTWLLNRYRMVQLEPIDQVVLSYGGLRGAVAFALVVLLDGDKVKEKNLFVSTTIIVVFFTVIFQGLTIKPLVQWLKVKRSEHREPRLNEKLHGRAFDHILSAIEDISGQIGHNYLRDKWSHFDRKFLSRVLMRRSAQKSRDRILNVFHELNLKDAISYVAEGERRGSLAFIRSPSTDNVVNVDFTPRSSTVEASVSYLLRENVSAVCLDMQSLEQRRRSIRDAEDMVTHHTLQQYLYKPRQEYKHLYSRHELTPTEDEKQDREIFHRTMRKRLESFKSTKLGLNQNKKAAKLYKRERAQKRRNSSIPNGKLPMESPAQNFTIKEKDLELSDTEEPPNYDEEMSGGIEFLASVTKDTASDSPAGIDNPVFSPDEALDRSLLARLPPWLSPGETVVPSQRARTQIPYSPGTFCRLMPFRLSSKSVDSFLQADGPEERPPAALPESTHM
T1 sequence (Q99653 2-195 partner limits assumed): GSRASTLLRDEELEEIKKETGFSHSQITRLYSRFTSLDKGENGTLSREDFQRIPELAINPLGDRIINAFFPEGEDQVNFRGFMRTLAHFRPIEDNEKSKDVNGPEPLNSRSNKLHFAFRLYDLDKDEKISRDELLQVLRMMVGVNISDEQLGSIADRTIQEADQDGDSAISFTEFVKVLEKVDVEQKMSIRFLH
How it was run: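 Activity read as initial rate of BCECF fluorescence ratio change per minute (ex 439/505, em 538 nm) following NH4Cl prepulse acid loading. Compound (0–30 μM) present during 10 min Na+-free acidification at room temperature; cells were PS120 fibroblasts stably co-expressing human NHE3 and NHERF2.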

NHE3 [2] = biological target: T1, NHE3; experiment: Cell-based assay of NHE-3 activity (persistent inhibition), human; conditions: human Persistence, 60 min incubation then washout
How it was run: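 Persistent inhibition: compound (0-30 μM, 60 min, RT, NaCl-HEPES pH 7.4) removed before assay. Human NHE3/NHERF2 PS120 cells were then BCECF-loaded during NH4Cl pulse (30 min, 37 °C), acidified in Na+-free buffer, and Na+ added 10 min after washout; antiport measured as initial fluorescence-ratio change per minute.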

SMILES | % inhibition (NHE3 [1]) | IC50 (NHE3 [1]) | % inhibition (NHE3 [2]) | IC50 (NHE3 [2]) | pIC50 (NHE3 [1]) | pIC50 (NHE3 [2])
Cc1cc(S(=O)(=O)NCCOCCOCCNC(=O)NCCCCNC(=O)NCCOCCOCCNS(=O)(=O)c2ccc(O[C@H]3c4cc(Cl)cc(C#N)c4C[C@@H]3N(C)C)c(C)c2)ccc1O[C@H]1c2cc(Cl)cc(C#N)c2C[C@@H]1N(C)C [Example 18, 3-[2-(2-[2-[(4-[[(1S,2S)-6-Chloro-4-cyano-2-(dimethylamino)-2,3-dihydro-1H-inden-1-yl]oxy]-3-methylbenzene)sulfonamido]ethoxy]ethoxy)ethyl]-1-[4-([[2-(2-[2-[(4-[[(1S,2S)-6-chloro-4-cyano-2-(dimethylamino)-2,3-dihydro-1H-inden-1-yl]oxy]-3-methylbenzene)sulfonamido]ethoxy]ethoxy)ethyl]carbamoyl]amino)butyl]urea; bis(trifluoroacetic acid)] | B (40-70%) |  | B (40-70%) |  | C (NHE3 pIC50 > 7) | C (NHE3 pIC50 > 7)
CC(C)[C@@H](COCCOCCNC(=O)NCCCCNC(=O)NCCOCCOC[C@@H](NS(=O)(=O)c1ccc(O[C@H]2c3cc(Cl)cc(Cl)c3C[C@@H]2N2CCC[C@@H](N)C2)cc1)C(C)C)NS(=O)(=O)c1ccc(O[C@H]2c3cc(Cl)cc(Cl)c3C[C@@H]2N2CCC[C@@H](N)C2)cc1 [Example 98, 3-(2-[2-[(2S)-2-[(4-[[(1S,2S)-2-[(3R)-3-Aminopiperidin-1-yl]-4,6-dichloro-2,3-dihydro-1H-inden-1-yl]oxy]benzene)sulfonamido]-3-methylbutoxy]ethoxy]ethyl)-1-(4-[[(2-[2-[(2S)-2-[(4-[[(1S,2S)-2-[(3R)-3-aminopiperidin-1-yl]-4,6-dichloro-2,3-dihydro-1H-inden-1-yl]oxy]benzene)sulfonamido]-3-methylbutoxy]ethoxy]ethyl)carbamoyl]amino]butyl)urea dihydrochloride] | C (>70%) |  | C (>70%) |  | C (NHE3 pIC50 > 7) | C (NHE3 pIC50 > 7)
Cc1cc(O[C@H]2c3cc(Cl)cc(Cl)c3C[C@@H]2N2CCC[C@@H](N)C2)c(F)cc1S(=O)(=O)NCCOCCOCCNC(=O)NCCCCNC(=O)NCCOCCOCCNS(=O)(=O)c1cc(F)c(O[C@H]2c3cc(Cl)cc(Cl)c3C[C@@H]2N2CCC[C@@H](N)C2)cc1C [Example 87, 3-[2-(2-[2-[(4-[[(1S,2S)-2-[(3R)-3-Aminopiperidin-1-yl]-4,6-dichloro-2,3-dihydro-1H-inden-1-yl]oxy]-5-fluoro-2-methylbenzene)sulfonamido]ethoxy]ethoxy)ethyl]-1-[4-([[2-(2-[2-[(4-[[(1S,2S)-2-[(3R)-3-aminopiperidin-1-yl]-4,6-dichloro-2,3-dihydro-1H-inden-1-yl]oxy]-5-fluoro-2-methylbenzene)sulfonamido]ethoxy]ethoxy)ethyl]carbamoyl]amino)butyl]urea; bis(trifluoroacetic acid)] | C (>70%) |  | C (>70%) |  |  | 
COc1cc(Cl)cc2c1C[C@H](N(C)C)[C@H]2Oc1ccc(S(=O)(=O)NCCOCCOCCNC(=O)NCCCCNC(=O)NCCOCCOCCNS(=O)(=O)c2ccc(O[C@H]3c4cc(Cl)cc(OC)c4C[C@@H]3N(C)C)c(C)c2)cc1C [Example 21, 3-[2-(2-[2-[(4-[[(1S,2S)-6-Chloro-2-(dimethylamino)-4-methoxy-2,3-dihydro-1H-inden-1-yl]oxy]-3-methylbenzene)sulfonamido]ethoxy]ethoxy)ethyl]-1-[4-([[2-(2-[2-[(4-[[(1S,2S)-6-chloro-2-(dimethylamino)-4-methoxy-2,3-dihydro-1H-inden-1-yl]oxy]-3-methylbenzene)sulfonamido]ethoxy]ethoxy)ethyl]carbamoyl]amino)butyl]urea; bis(trifluoroacetic acid)] | A (NHE3 < 40%) |  | C (>70%) |  | C (NHE3 pIC50 > 7) | A (NHE3 pIC50 < 6)

Now from value to compound:

% inhibition (NHE3 [1]) | IC50 (NHE3 [1]) | % inhibition (NHE3 [2]) | IC50 (NHE3 [2]) | pIC50 (NHE3 [1]) | pIC50 (NHE3 [2]) | SMILES
C (>70%) | < 100 nM | A (NHE3 < 40%) | > 1000 nM |  |  | N[C@@H]1CCCN([C@H]2Cc3c(Cl)cc(Cl)cc3[C@@H]2Oc2ccc(S(=O)(=O)NCCCCCCCCNC(=O)NCCCCNC(=O)NCCCCCCCCNS(=O)(=O)c3ccc(O[C@H]4c5cc(Cl)cc(Cl)c5C[C@@H]4N4CCC[C@@H](N)C4)cc3)cc2)C1 [Example 62, 3-[8-[(4-[[(1S,2S)-2-[(3R)-3-Aminopiperidin-1-yl]-4,6-dichloro-2,3-dihydro-1H-inden-1-yl]oxy]benzene)sulfonamido]octyl]-1-[4-[([8-[(4-[[(1S,2S)-2-[(3R)-3-aminopiperidin-1-yl]-4,6-dichloro-2,3-dihydro-1H-inden-1-yl]oxy]benzene)sulfonamido]octyl]carbamoyl)amino]butyl]urea; bis(trifluoroacetic acid)]
A (NHE3 < 40%) |  | A (NHE3 < 40%) |  | A (NHE3 pIC50 < 6) | C (NHE3 pIC50 > 7) | CN1CCCN([C@H]2Cc3c(C#N)cc(Cl)cc3[C@@H]2Oc2ccc(S(=O)(=O)N[C@@H]3CCN(CCOCCNC(=O)NCCCCNC(=O)NCCOCCN4CC[C@@H](NS(=O)(=O)c5ccc(O[C@H]6c7cc(Cl)cc(C#N)c7C[C@@H]6N6CCCN(C)CC6)cc5)C4)C3)cc2)CC1 [Example 129]
C (>70%) |  | C (>70%) |  | C (NHE3 pIC50 > 7) | C (NHE3 pIC50 > 7) | N[C@@H]1CCCN([C@H]2Cc3c(Cl)cc(Cl)cc3[C@@H]2Oc2ccc(S(=O)(=O)N3CCC(OCCOCCNC(=O)NCCCCNC(=O)NCCOCCOC4CCN(S(=O)(=O)c5ccc(O[C@H]6c7cc(Cl)cc(Cl)c7C[C@@H]6N6CCC[C@@H](N)C6)cc5)CC4)CC3)cc2)C1 [Example 95, 3-[2-[2-([1-[(4-[[(1S,2S)-2-[(3R)-3-Aminopiperidin-1-yl]-4,6-dichloro-2,3-dihydro-1H-inden-1-yl]oxy]benzene)sulfonyl]piperidin-4-yl]oxy)ethoxy]ethyl]-1-[4-[([2-[2-([1-[(4-[[(1S,2S)-2-[(3R)-3-aminopiperidin-1-yl]-4,6-dichloro-2,3-dihydro-1H-inden-1-yl]oxy]benzene)sulfonyl]piperidin-4-yl]oxy)ethoxy]ethyl]carbamoyl)amino]butyl]urea]
C (>70%) | < 100 nM | C (>70%) | < 100 nM |  |  | N[C@@H]1CCCN([C@H]2Cc3c(Cl)cc(Cl)cc3[C@@H]2Oc2ccc(S(=O)(=O)NCCCCn3cc(CNC(=O)NCCCCNC(=O)NCc4cn(CCCCNS(=O)(=O)c5ccc(O[C@H]6c7cc(Cl)cc(Cl)c7C[C@@H]6N6CCC[C@@H](N)C6)cc5)nn4)nn3)cc2)C1 [Example 58, 3-[(1-[4-[(4-[[(1S,2S)-2-[(3R)-3-Aminopiperidin-1-yl]-4,6-dichloro-2,3-dihydro-1H-inden-1-yl]oxy]benzene)sulfonamido]butyl]-1H-1,2,3-triazol-4-yl)methyl]-1-[4-([[(1-[4-[(4-[[(1S,2S)-2-[(3R)-3-aminopiperidin-1-yl]-4,6-dichloro-2,3-dihydro-1H-inden-1-yl]oxy]benzene)sulfonamido]butyl]-1H-1,2,3-triazol-4-yl)methyl]carbamoyl]amino)butyl]urea]
C (>70%) |  | C (>70%) | 100 to 1000 nM | C (NHE3 pIC50 > 7) |  | N#Cc1cc(Cl)cc2c1C[C@H](N1CCNCC1)[C@H]2Oc1ccc(S(=O)(=O)NC(=O)CCCNC(=O)NCCCCNC(=O)NCCCC(=O)NS(=O)(=O)c2ccc(O[C@H]3c4cc(Cl)cc(C#N)c4C[C@@H]3N3CCNCC3)cc2)cc1 [Example 124, N^1,N^18-Bis([4-([(1S,2S)-6-chloro-4-cyano-2-(piperazin-1-yl)-2,3-dihydro-1H-inden-1-yl]oxy)phenyl]sulfonyl)-6,13-dioxo-5,7,12,14-tetraazaoctadecanediamide]
